Read-outs that look alike come from different tables or passages of the source.
Key:
human 15-LOX-1 = target: T1, human 15-LOX-1 (Homo sapiens, UniProt P16050); test: Lipoxygenase inhibitory assessment (DMAB-MBTH peroxide method, linoleic acid substrate); format: biochemical
T1 construct: Human 15-LOX-1 was prepared from isolated human eosinophil based on the procedure reported by Sigal et al; from tissue; host or cells: eosinophils purified from blood of hypereosinophilic human donors; 100,000 g supernatant, 30% and 60% ammonium sulfate pellets
T1 sequence (P16050 1-662): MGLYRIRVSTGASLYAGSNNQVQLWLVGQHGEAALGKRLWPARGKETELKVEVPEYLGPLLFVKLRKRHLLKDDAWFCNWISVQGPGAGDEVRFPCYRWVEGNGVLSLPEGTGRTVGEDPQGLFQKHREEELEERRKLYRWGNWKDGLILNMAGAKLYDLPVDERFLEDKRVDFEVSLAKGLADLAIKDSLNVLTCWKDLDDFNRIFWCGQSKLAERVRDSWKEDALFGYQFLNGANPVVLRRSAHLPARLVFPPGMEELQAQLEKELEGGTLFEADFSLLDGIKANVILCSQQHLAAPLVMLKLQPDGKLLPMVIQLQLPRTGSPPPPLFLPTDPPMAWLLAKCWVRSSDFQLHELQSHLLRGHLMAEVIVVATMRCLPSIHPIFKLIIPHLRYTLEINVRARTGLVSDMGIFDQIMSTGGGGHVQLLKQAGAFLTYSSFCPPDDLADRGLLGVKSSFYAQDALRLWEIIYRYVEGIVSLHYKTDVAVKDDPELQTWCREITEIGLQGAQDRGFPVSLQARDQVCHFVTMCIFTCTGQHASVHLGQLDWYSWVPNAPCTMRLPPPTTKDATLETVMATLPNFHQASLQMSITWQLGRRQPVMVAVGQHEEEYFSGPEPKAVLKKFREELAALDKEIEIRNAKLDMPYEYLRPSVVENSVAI
Experimental: The inhibitory activity of the synthetic compounds against human 15-LOX-1 was determined utilizing modified catalytic oxidative coupling of 3-methyl-2-benzothiazolinone (MBTH) with 3-(dimethylamino)benzoic acid (DMAB) as reported in previous studies. In this method, the basis for the determination of lipoxygenase activity is the measurement of peroxide concentration. Human 15-LOX-1 was prepared from isolated human eosinophil based on the procedure reported by Sigal et al. […] Because of the instability of the purified 15-LOX-1, the crude form of the enzyme was utilized. Eosinophils from blood of hypereosinophilic donors (8–11% eosinophils) were purified to more than 85% through “hypotonic lysis and centrifugation” method reported by Samoszuk.
Linoleic acid and two assay solutions (A and B) were prepared in advance.
Solution A was 50 mM DMAB in an l00 mM phosphate buffer (pH 7.0). Solution B was a mixture of l0 mM MBTH (3 mL), hemoglobin (5 mg/mL, 3 mL) in 50 mM phosphate buffer at pH 5.0 (25 ml). A linoleic acid solution was prepared by mixing 5.6 mg of linoleic acid (Sigma Aldrich, L1376) with 0.5 mL methanol and then diluted with KOH 100 mM to a final volume of 5 mL (4 mM).
In the standard assay, the sample in DMSO (12.5 μL), 15-LOX-1 (104 units/mL; 30 μL) and phosphate buffer, pH 7.0 (50 mM; 435 μL) were mixed in 48 well plate and perincubation was carried out for 10 min at 30°C. A control test was done with the same volume of ethanol. After the preincubation, linoleic acid solution (25 μL) was added to start the peroxidation reaction at 30°C, and, 10 min later, solution A (135 μL) and then solution B (65 μL) was added to start the color formation. Further, 3 min later, 100 μL of a 2% SDS solution was added to terminate the reaction. The absorbance at 598 nm was compared with the control test. These experiments were performed in triplicate. The data analysis was performed using GraphPad Prism 5.01.

[1] = human 15-LOX-1 from eosinophils (crude), linoleic acid, 30°C, ± SD (n = 3), read-out: IC50
[2] = human 15-LOX-1 from eosinophils (crude), linoleic acid, 30°C, ± SD (n = 3)

Row | SMILES | IC50 (human 15-LOX-1; [1]) | melting point | IC50 (human 15-LOX-1) | lower lipoxygenase inhibitory potency compared to the corresponding carboxylate-off analog (human 15-LOX-1; 3-carboxycoumarin vs farnesyloxycoumarin without carboxylic acid (d vs d')) | IC50 (human 15-LOX-1; [2]) | higher lipoxygenase inhibitory activity compared to the corresponding carboxylate-off analog (human 15-LOX-1; 3-carboxycoumarin vs farnesyloxycoumarin without carboxylic acid (4d vs 4d'))
1 | C=CCOc1ccc2oc(=O)c(C(=O)O)cc2c1 [Compound 8a, 6-(allyloxy)-2-oxo-2H-chromene-3-carboxylic acid] | 296 ± 26.3 µM | 167 to 168 °C | – | – | – | –
2 | CC(C)=CCOc1cccc2oc(=O)c(C(=O)O)cc12 [Compound 4b, 5-(3-methylbut-2-enyloxy)-2-oxo-2H-chromene-3-carboxylic acid] | 62.5 ± 5.9 µM | 85 to 86 °C | – | – | – | –
3 | CC(C)=CCC/C(C)=C/CC/C(C)=C/COc1ccc2cc(C(=O)O)c(=O)oc2c1 [Compound 12d, 7-((2E,6E)-3,7,11-trimethyldodeca-2,6,10-trienyloxy)-2-oxo-2H-chromene-3-carboxylic acid] | – | 87 to 90 °C | – | – | – | –
4 | CC(C)=CCC/C(C)=C/CC/C(C)=C/COc1ccc2oc(=O)c(C(=O)O)cc2c1 [Compound 8d, 6-((2E,6E)-3,7,11-trimethyldodeca-2,6,10-trienyloxy)-2-oxo-2H-chromene-3-carboxylic acid] | – | 98 to 99 °C | 10.4 ± 2.1 µM | 10 folds | 1.0 ± 0.06 µM | –
5 | CC(C)=CCC/C(C)=C/COc1ccc2oc(=O)c(C(=O)O)cc2c1 [Compound 8c, Ethyl 6-((E)-3,7-dimethylocta-2,6-dienyloxy)-2-oxo-2H-chromene-3-carboxylic acid] | 21.5 ± 1.6 µM | 130 to 131 °C | – | – | – | –
6 | CC(C)=CCOc1ccc2cc(C(=O)O)c(=O)oc2c1 [Compound 12b, 7-(3-methylbut-2-enyloxy)-2-oxo-2H-chromene-3-carboxylic acid] | 81.3 ± 5.3 µM | 147 to 148 °C | – | – | – | –
7 | C=CCOc1cccc2oc(=O)c(C(=O)O)cc12 [Compound 4a, 5-(allyloxy)-2-oxo-2H-chromene-3-carboxylic acid] | 93.5 ± 7.6 µM | 115 to 117 °C | – | – | – | –
8 | CC(C)=CCC/C(C)=C/CC/C(C)=C/COc1cccc2oc(=O)c(C(=O)O)cc12 [Compound 4d, 5-((2E,6E)-3,7,11-trimethyldodeca-2,6,10-trienyloxy)-2-oxo-2H-chromene-3-carboxylic acid] | – | 39 to 40 °C | 0.74 ± 0.05 µM | – | 1.6 ± 0.08 µM | 2 folds
9 | Cc1nc(N2CCN(C)CC2)nc2c1Sc1ccccc1N2 [Compound 4-MMPB, 4-methyl-2-(4-methylpiperazinyl)pyrimido[4,5-b]benzothiazine, reference compound] | 16.8 ± 1.1 µM | – | – | – | – | –
10 | CC(C)=CCC/C(C)=C/COc1cccc2oc(=O)c(C(=O)O)cc12 [Compound 4c, 5-((E)-3,7-dimethylocta-2,6-dienyloxy)-2-oxo-2H-chromene-3-carboxylic acid] | 4.8 ± 0.55 µM | 49 to 50 °C | – | – | – | –
11 | C=CCOc1ccc2cc(C(=O)O)c(=O)oc2c1 [Compound 12a, 7-(allyloxy)-2-oxo-2H-chromene-3-carboxylic acid] | 114 ± 10.1 µM | 205 to 207 °C | – | – | – | –
12 | C=CCOc1cccc2cc(C(=O)O)c(=O)oc12 [Compound 18a, 8-(allyloxy)-2-oxo-2H-chromene-3-carboxylic acid] | 293 ± 20.3 µM | 198 to 200 °C | – | – | – | –
13 | CC(C)=CCOc1cccc2cc(C(=O)O)c(=O)oc12 [Compound 18b, 8-(3-methylbut-2-enyloxy)-2-oxo-2H-chromene-3-carboxylic acid] | 263 ± 23 µM | 143 to 144 °C | – | – | – | –
14 | CC(C)=CCC/C(C)=C/COc1ccc2cc(C(=O)O)c(=O)oc2c1 [Compound 12c, 7-((E)-3,7-dimethylocta-2,6-dienyloxy)-2-oxo-2H-chromene-3-carboxylic acid] | 12.1 ± 0.91 µM | 118 to 119 °C | – | – | – | –
15 | CC(C)=CCOc1ccc2oc(=O)c(C(=O)O)cc2c1 [Compound 8b, 6-(3-methylbut-2-enyloxy)-2-oxo-2H-chromene-3-carboxylic acid] | 227 ± 22.1 µM | 158 to 159 °C | – | – | – | –
16 | CC(C)=CCC/C(C)=C/COc1cccc2cc(C(=O)O)c(=O)oc12 [Compound 18c, 8-((E)-3,7-dimethylocta-2,6-dienyloxy)-2-oxo-2H-chromene-3-carboxylic acid] | 20.4 ± 2.2 µM | 100 to 101 °C | – | – | – | –
